Reference: ChEMBL document CHEMBL1132822, “2,4,5-Trisubstituted imidazoles: novel nontoxic modulators of P-glycoprotein mediated multidrug resistance. Part 2” (Bioorg Med Chem Lett, 2000)

How the values were obtained:
[1] = target: ATP-dependent translocase ABCB1 (Homo sapiens, UniProt P08183); experiment: Modulation of Pgp (P-glycoprotein) mediated multidrug resistance in CEM / VLB 1000 cell line; assay type: functional, cell-based, CCRF-CEM; details: read-out: ED50 (the source's name)
[2] = Half life in Dog plasma at a dosage 5 mg/kg after intravenous administration; assay type: ADME, organism-based, Canis lupus familiaris; parameters: dose 5 mg/kg, route intravenous
Canis familiaris = experiment: (§1) Oral bioavailability in dog (dose 10 mg/kg); assay type: functional, organism-based; details: Canis lupus familiaris
Homo sapiens = experiment: Compound concentration in plasma of healthy human (male) after 3-4h of 400 mg dose of compound given orally; assay type: functional
[3] = as §1; assay type: ADME, organism-based, Canis lupus familiaris; details: in vivo

ATP-dependent translocase ABCB1, sequence (P08183 whole entry): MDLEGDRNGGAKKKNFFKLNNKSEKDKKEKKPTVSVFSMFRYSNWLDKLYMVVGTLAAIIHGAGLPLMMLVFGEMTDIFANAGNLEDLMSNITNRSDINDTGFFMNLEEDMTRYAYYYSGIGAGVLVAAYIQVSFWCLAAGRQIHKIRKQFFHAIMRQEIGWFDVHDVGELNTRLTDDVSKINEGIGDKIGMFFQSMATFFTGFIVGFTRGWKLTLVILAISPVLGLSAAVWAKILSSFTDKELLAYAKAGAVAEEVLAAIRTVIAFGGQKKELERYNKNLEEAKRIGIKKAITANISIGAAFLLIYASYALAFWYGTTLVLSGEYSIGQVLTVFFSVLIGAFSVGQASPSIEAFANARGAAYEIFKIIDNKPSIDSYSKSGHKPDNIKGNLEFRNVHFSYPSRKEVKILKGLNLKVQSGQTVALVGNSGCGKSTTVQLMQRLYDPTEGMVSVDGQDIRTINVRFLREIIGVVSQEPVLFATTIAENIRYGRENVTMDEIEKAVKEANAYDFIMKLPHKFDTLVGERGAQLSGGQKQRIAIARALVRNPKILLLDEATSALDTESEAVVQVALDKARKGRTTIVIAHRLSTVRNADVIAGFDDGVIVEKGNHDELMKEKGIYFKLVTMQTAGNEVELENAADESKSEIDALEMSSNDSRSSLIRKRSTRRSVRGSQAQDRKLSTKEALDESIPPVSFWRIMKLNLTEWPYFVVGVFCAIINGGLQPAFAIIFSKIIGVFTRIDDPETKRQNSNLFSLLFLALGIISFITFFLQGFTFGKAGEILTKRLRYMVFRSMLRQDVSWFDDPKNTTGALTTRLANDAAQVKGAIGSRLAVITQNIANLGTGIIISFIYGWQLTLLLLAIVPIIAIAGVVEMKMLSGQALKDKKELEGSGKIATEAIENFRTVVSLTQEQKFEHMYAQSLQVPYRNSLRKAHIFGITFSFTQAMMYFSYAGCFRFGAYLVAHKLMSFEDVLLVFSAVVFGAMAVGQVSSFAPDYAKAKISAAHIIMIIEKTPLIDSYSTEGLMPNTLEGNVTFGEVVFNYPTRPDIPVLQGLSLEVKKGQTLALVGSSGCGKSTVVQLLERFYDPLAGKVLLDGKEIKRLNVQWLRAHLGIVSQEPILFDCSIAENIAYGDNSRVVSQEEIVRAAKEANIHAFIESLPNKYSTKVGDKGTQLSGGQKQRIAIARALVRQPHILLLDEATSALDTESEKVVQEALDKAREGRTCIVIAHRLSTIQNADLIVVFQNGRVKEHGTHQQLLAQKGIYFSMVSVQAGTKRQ

Compound	EC50 [1]	further results
CCOC/C=C/c1ccc(-c2nc(-c3ccc(NCC(C)C)cc3)c[nH]2)cc1	250 nM	–
CCOC/C=C/c1ccc(-c2nc(-c3ccc(N4CCOCC4)cc3)c(-c3ccc(N4CCOCC4)cc3)[nH]2)cc1	220 nM	–
CNc1ccc(-c2nc(-c3ccc(/C=C/C(=O)OC)cc3)[nH]c2-c2ccc(NC)cc2)cc1	200 nM	–
CCOC/C=C/c1ccc(-c2nc(-c3ccc(NC)cc3)c(-c3ccc(N4CCCC4)cc3)[nH]2)cc1	150 nM	–
COC(=O)/C=C/c1ccc(-c2nc(-c3ccc(N(C)C)cc3)c(-c3ccc(N(C)C)cc3)[nH]2)cc1	300 nM	–
CCNc1ccc(-c2[nH]c(-c3ccc(/C=C/COCC)cc3)nc2-c2ccc(NC(C)C)cc2)cc1	50 nM	–
CCCN(CCC)c1ccc(-c2c[nH]c(-c3ccc(/C=C/COCC)cc3)n2)cc1	280 nM	–
CNc1ccc(-c2[nH]c(-c3ccc(/C=C/C(=O)OC)cc3)nc2-c2ccc(NC(C)C)cc2)cc1	120 nM	–
CCOC/C=C/c1ccc(-c2nc(-c3ccc(NC(C)C)cc3)c(-c3ccc(NC(C)C)cc3)[nH]2)cc1	50 nM	half-life [2]: 2.79 h; Concentration (Homo sapiens): 3 µM; bioavailability (Canis familiaris): 41%
CCOC/C=C/c1ccc(-c2nc(-c3ccc(NC(C)C)cc3)c[nH]2)cc1	340 nM	–
CCOC/C=C/c1ccc(-c2nc(-c3ccc(N(CC)CC)cc3)c[nH]2)cc1	300 nM	–
CCOC/C=C/c1ccc(-c2nc(-c3ccc(NC(C)C)cc3)c(-c3ccc(NC)cc3)[nH]2)cc1	50 nM	half-life [2]: 1.35 h; bioavailability (Canis familiaris): 36%
CCN(CC)c1ccc(-c2[nH]c(-c3ccc(/C=C/C(=O)OC)cc3)nc2-c2ccc(N)cc2)cc1	310 nM	–

The remaining molecules from weak to strong by EC50 [1], led by results:

EC50 [1]	Compound	further results
5500 nM	C=CCN(CC=C)c1ccc(-c2nc(-c3ccc(/C=C/C(=O)OC)cc3)[nH]c2-c2ccc(N(CC=C)CC=C)cc2)cc1	–
2100 nM	CCCCN(CCCC)c1ccc(-c2[nH]c(-c3ccc(/C=C/C(=O)OC)cc3)nc2-c2ccc(NC)cc2)cc1	–
590 nM	COC(=O)/C=C/c1ccc(-c2nc(-c3ccc(N)cc3)c(-c3ccc(N(C)C)cc3)[nH]2)cc1	–
570 nM	CCN(CC)c1ccc(-c2nc(-c3ccc(/C=C/C(=O)OC)cc3)[nH]c2-c2ccc(N(CC)CC)cc2)cc1	–
370 nM	COC(=O)/C=C/c1ccc(-c2nc(-c3ccc(N4CCCC4)cc3)c(-c3ccc(N4CCCC4)cc3)[nH]2)cc1	–
370 nM	CCOC/C=C/c1ccc(-c2nc(-c3ccc(N4CCOCC4)cc3)c[nH]2)cc1	–
260 nM	CCOC/C=C/c1ccc(-c2nc(-c3ccc(N(CC)CC)cc3)c(-c3ccc(N(CC)CC)cc3)[nH]2)cc1	–
180 nM	CCCN(CCC)c1ccc(-c2[nH]c(-c3ccc(/C=C/C(=O)OC)cc3)nc2-c2ccc(NC)cc2)cc1	–
160 nM	CCOC/C=C/c1ccc(-c2nc(-c3ccc(F)cc3)c(-c3ccc(NC(C)C)cc3)[nH]2)cc1	half-life [2]: 1.27 h; bioavailability (Canis familiaris): 45%
130 nM	CNc1ccc(-c2[nH]c(-c3ccc(/C=C/C(=O)OC)cc3)nc2-c2ccc(N(C)C)cc2)cc1	–
110 nM	CNc1ccc(-c2[nH]c(-c3ccc(/C=C/CCOC)cc3)nc2-c2ccc(N(C)C)cc2)cc1	–
80 nM	CCOC/C=C/c1ccc(-c2nc(-c3ccc(N(C)C)cc3)c(-c3ccc(N(C)C)cc3)[nH]2)cc1	half-life [2]: 0.5 h; bioavailability [3]: 35%
70 nM	CCN(CC)c1ccc(-c2[nH]c(-c3ccc(/C=C/C(=O)OC)cc3)nc2-c2ccc(NC)cc2)cc1	–
60 nM	CCOCC/C=C/c1ccc(-c2nc(-c3ccc(NC)cc3)c(-c3ccc(N(CC)CC)cc3)[nH]2)cc1	–
